In US20230087342A1, “AZEPANE DERIVATIVE” (Nippon Chemiphar Co., Ltd., priority 2019, published 2023):
Like-named read-outs stand apart in the source and are kept apart here.

What was measured:
Metabolic stability test = assay type: in vitro ADME; settings: human liver microsomes, 0 to 30 minutes; a hydrochloride was used
Description: To determine the unchanged product-residual ratio of the test compound in the reaction sample, human liver microsomes and the test compound were reacted for a predetermined time (0 to 30 minutes). The unchanged product-residual ratio at a reaction time of 0 hours was considered 100%, the residual ratio after incubation was log-linear plotted with respect to the time, a regression line (y=100 e^−kt, k=slope of the line: elimination rate constant) was determined, and the metabolic clearance CLint (mL/min/kg) was calculated using the following formula.
CLint*=k (−min)×45 (mg MS protein/g liver)×21 (g liver/kg)/MS protein (mg MS protein/mL)
*: Yamazaki S.; Skaptason J.; Romero D, Vekich S.; Jones HM.; Tan W.; Wilner KD.; Koudriakova T. Drug Metab. Dispos. 2011 March; 39 (3): 383-393.

human κ opioid receptors = biological target: T1, human κ opioid receptors (Homo sapiens, UniProt P41145); assay: Opioid receptor function test (Lance Ultra cAMP kit, agonist activity); assay type: cell-based; settings: CHO cells expressing human κ opioid receptors, 10 μM forskolin, 30 minutes
T1 construct: host or cells: CHO cells
How it was run: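 CHO cells expressing human κ opioid receptor incubated 30 min with test compound (10^−14 to 10^−7 M) and 10 μM forskolin in HSS/5 mM HEPES pH 7.4 with 0.5 mM IBMX and 0.1% SA. cAMP measured by TR-FRET (Lance Ultra) 1 h after detection reagent addition.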

ICR male mice = assay: Mouse acetic acid writhing test; assay type: in vivo; settings: hydrochloride; for ED50: Mus musculus, read-out: ED50 value (writhing suppressing effect)
Description: Mouse Acetic Acid Writhing Test
The analgesic effect of the test compound was evaluated by an acetic acid writhing test. For the experiment, ICR male mice were used and acclimated to a plastic open field for 30 minutes before starting the test. After acclimation, the mice were administered with the test compound (30 to 3000 μg/kg) or water for injection subcutaneously or orally, and once returned to the open field. Thirty minutes after the administration of the test compound, a 0.6% aqueous acetic acid solution was additionally administered to the same mice by intraperitoneal administration. From 10 minutes after administration of the 0.6% aqueous acetic acid solution, the number of writhing reactions (writhing reactions in which the mouse stretches while pressing the abdominal cavity against the floor) induced in the mice was measured for 10 minutes, and the number of writhing reactions was compared with that of a control group (water for injection-administrated group) to evaluate the analgesic effect of the test compound.

T1 sequence (P41145 whole entry): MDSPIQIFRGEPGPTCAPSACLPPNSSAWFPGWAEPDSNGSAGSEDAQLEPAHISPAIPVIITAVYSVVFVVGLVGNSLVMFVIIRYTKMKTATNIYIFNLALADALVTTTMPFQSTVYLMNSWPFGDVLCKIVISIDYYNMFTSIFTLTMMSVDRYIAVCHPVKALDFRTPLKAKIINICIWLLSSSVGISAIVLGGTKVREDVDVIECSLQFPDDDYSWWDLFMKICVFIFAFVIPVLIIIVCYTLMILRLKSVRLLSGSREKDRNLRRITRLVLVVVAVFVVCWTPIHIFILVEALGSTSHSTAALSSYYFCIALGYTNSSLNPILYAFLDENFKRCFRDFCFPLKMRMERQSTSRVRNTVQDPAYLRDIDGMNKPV

Row | SMILES | CLint scaled (Metabolic stability test) [mL/min/kg] | EC50 (human κ opioid receptors) [nM] | ED50 (ICR male mice; Oral) [mg/kg] | Writhing suppression rate (ICR male mice; Oral, dose 30 (μg/kg)) | Writhing suppression rate (ICR male mice; Oral, dose 300 (μg/kg)) | Writhing suppression rate (ICR male mice; Oral, dose 1000 (μg/kg)) | Writhing suppression rate (ICR male mice; Oral, dose 3000 (μg/kg)) | ED50 (ICR male mice; sc, Subcutaneous) [mg/kg] | Writhing suppression rate (ICR male mice; Subcutaneous, dose 30 (μg/kg)) | Writhing suppression rate (ICR male mice; Subcutaneous, dose 300 (μg/kg))
1 | O=C(Cc1ccccn1)N1CC[C@]23CCN(CC4CC4)[C@H](Cc4ccc(O)cc42)[C@]3(O)CC1 [Example 22, 1-((5aS,6R,11bR)-14-(cyclopropylmethyl)-5a,10-dihydroxy-1,2,5,5a,6,7-hexahydro-6,11b-(epiminoethano)naphtho[1,2-d]azepin-3(4H)-yl)-2-(pyridin-2-yl)ethan-1-one] | 7.2 | 0.13 | 0.0152 | + (40 ≤ % <60: +) | ++ (60 ≤ % <80: ++) | – | – | – | – | –
2 | O=C(Cc1ccccn1)N1CC[C@]23CCN(CC4CC4)[C@H](Cc4cc(Cl)c(O)cc42)[C@]3(O)CC1 [Example 308, 1-((5aS,6R,11bR)-9-chloro-14-(cyclopropylmethyl)-5a,10-dihydroxy-1,2,5,5a,6,7-hexahydro-6,11b-(epiminoethano)naphtho[1,2-d]azepin-3(4H)-yl)-2-(pyridin-2-yl)ethan-1-one] | 9 | 0.6 | 1.42 | – | – | + (40 ≤ % <60: +) | ++ (60 ≤ % <80: ++) | – | – | –
3 | Oc1ccc2c(c1)[C@@]13CCN(CCc4ccccn4)CC[C@@]1(O)[C@@H](C2)N(CC1CC1)CC3 [Example 77, (5aS,6R,11bS)-14-(cyclopropylmethyl)-3-(2-(pyridin-2-yl)ethyl)-2,3,4,5,6,7-hexahydro-6,11b-(epiminoethano)naphtho[1,2-d]azepine-5a,10(1H)-diol] | 6.7 | 0.026 | – | – | – | – | – | 0.0125 | + (40 ≤ % <60: +) | +++ (80 ≤ %: +++)
